Data published in patent publication US5595999A, “Guanidine derivatives” (Hoffmann-La Roche Inc., priority 1990, dated 1997).

Key:
trypsin = test: Inhibition of amidolytic activity of trypsin (chromogenic substrate S-2251); type: biochemical; details: S-2251, 200 and 750 μM final concentration, pH 7.8, room temperature
Procedure: (§1) A differential inhibition of thrombin and other serine proteases by the above compounds is desirable in order to obtain compounds having as high a specificity as possible and at the same time to avoid possible side-effects.
(§2) Specific chromogenic peptide substrates can be used to determine the inhibition of the catalytic activity of the above proteases. The inhibition of the amidolytic activity of thrombin and trypsin by the above guanidines was determined as described hereinafter.
(§3) The measurements were carried out on microtiter plates at room temperature. For this, in each well of the plate 150 μl of buffer (50 mM Tris, 100 mM NaCl, 0.1% polyethylene glycol; pH 7.8) were mixed with 50 μl of the inhibitor dissolved in DMSO and diluted in the buffer, and 25 μl of human thrombin (0.5 nM final conc.) were added. After incubation for 10 minutes, the reaction was started by the addition of chromogenic substrate S-2238 (H-D-Phe-Pip-Arg-paranitroaniline from Kabivitrum; 10 or 50 μm final conc.) and the hydrolysis of the substrate was followed spectrophotometrically on a kinetic microliter plate reader for 5 minutes. After graphical presentation of the inhibition curves, the Ki values were determined according to the method described in Biochem. J. 55, 1955, 170-171. The inhibition of trypsin was effected analogously, but using the substrate S-2251 (H-D-Val-Leu-Lys-paranitroaniline) in 200 and 750 μM final concentration.

human thrombin = human thrombin (Homo sapiens, UniProt P00734); test: Inhibition of amidolytic activity of thrombin (chromogenic substrate S-2238); type: biochemical; details: human thrombin 0.5 nM final conc., S-2238, pH 7.8, room temperature
Procedure: as §1, §2, §3

[1] = Toxicity in mice upon intravenous administration; details: mouse, in vivo
Procedure: The guanidines of formula I have a low toxicity. Thus, the products of Example 8, 13a, 14i and 18f have an LD50 of 30-50mg/kg in mice upon intravenous administration.

Row | SMILES | Ki (trypsin) [nM] | Ki (human thrombin) [nM] | LD50 [1] [mg/kg]
1 | N=C(N)N1CCCC(CNC(=O)[C@@H](CN2C(=O)C(=O)c3ccccc32)NS(=O)(=O)c2ccc3ccccc3c2)C1 (some centres unmarked) [Example 8] | 20100 | 8.55 | 30 to 50
2 | N=C(N)N1CCCC(CNC(=O)[C@@H](Cc2c[nH]c3ccccc23)NS(=O)(=O)c2ccccc2[N+](=O)[O-])C1 (mixture of isomers) [Example 14i, (R)-N-[(RS)-1-Amidino-3-piperidinylmethyl]-α-(o-nitrobenzenesulfonamido)indole-3-propionamide] | 38000 | 25 | 30 to 50
3 | N=C(N)N1CCCC(CNC(=O)[C@@H](CC(=O)c2ccccc2N)NS(=O)(=O)c2ccc3ccccc3c2)C1 (stereo partly drawn) [Example 18f, (R)-N-[(RS)-1-Amidino-3-piperidinylmethyl]-3-(o-aminobenzoyl)-2-(naphthylsulfonamido)propionamide] |  | 16 | 30 to 50
4 | N=C(N)N1CCC[C@@H](COC(=O)[C@@H](Cc2c[nH]c3ccccc23)NS(=O)(=O)c2ccc(I)cc2)C1 [Example 17c, N-(p-Iodophenylsulfonyl)-D-tryptophan (R)-1-amidino-3-piperidinylmethyl ester] | 10000 | 58 | 
5 | N=C(N)N1CCCC(CNC(=O)[C@@H](Cc2ccccc2[N+](=O)[O-])NS(=O)(=O)c2ccc3ccccc3c2)C1 (mixture of isomers) [Example 13a, (R)-N-[(RS)-1-Amidino-3-piperidinylmethyl]-α-(2-naphthylsulfonamido)-o-nitrohydrocinnamamide] | 29200 | 20.8 | 30 to 50

Now from value to molecule, other results behind:

Row | Ki (trypsin) [nM] | Ki (human thrombin) [nM] | SMILES | LD50 [1] [mg/kg]
6 | 169000 | 135 | N=C(N)N1CCCC(CNC(=O)[C@@H](Cc2ccccc2)NS(=O)(=O)c2ccc3ccccc3c2)C1 (stereo partly drawn) [Example 9, (R)-N-[(RS)-1-amidino-3-piperidinylmethyl]-α-(2-naphthylsulfonamido)hydrocinnamide] | 
7 | 6300 | 20.7 | N=C(N)N1CCC[C@@H](CNC(=O)[C@@H](Cc2c[nH]c3ccccc23)NS(=O)(=O)c2ccc(I)cc2)C1 [Example 17b, (R)-N-[(S)-1-Amidino-3-piperidinylmethyl]-α-(p-iodobenzenesulfonamido)indole-3-propionamide] | 
8 |  | 41.3 | N=C(N)N1CCC[C@@H](CNC(=O)[C@@H](Cc2ccc3ccccc3c2)NS(=O)(=O)c2ccc(I)cc2)C1 [Example 17f, (R)-N-[(S)-1-Amidino-3-piperidinylmethyl]-α-(p-iodobenzenesulfonamido)-2-naphthylpropionamide] | 
9 | 14800 | 26.1 | N=C(N)N1CCC[C@@H](CNC(=O)[C@@H](Cc2ccc([N+](=O)[O-])cc2)NS(=O)(=O)c2ccc(I)cc2)C1 [Example 17j, (R)-N-[(S)-1-Amidino-3-piperidinylmethyl]-α-(p-iodo-benzenesulfonamido)-p-nitrohydrocinnamamide] | 
